What follows are compounds tested against T1, human RNR (histidine tagged human M1 and human M2 proteins) (Homo sapiens, UniProt P23921) (assay: Human RNR inhibition effect (dCDP formation from CDP)). Conditions: 10 μM CDP, 37° C. for 30 minutes, read-out: RNR inhibitory activity IC50.
T1 construct: made in house; host or cells: Escherichia coli
T1 sequence (P23921 1-792): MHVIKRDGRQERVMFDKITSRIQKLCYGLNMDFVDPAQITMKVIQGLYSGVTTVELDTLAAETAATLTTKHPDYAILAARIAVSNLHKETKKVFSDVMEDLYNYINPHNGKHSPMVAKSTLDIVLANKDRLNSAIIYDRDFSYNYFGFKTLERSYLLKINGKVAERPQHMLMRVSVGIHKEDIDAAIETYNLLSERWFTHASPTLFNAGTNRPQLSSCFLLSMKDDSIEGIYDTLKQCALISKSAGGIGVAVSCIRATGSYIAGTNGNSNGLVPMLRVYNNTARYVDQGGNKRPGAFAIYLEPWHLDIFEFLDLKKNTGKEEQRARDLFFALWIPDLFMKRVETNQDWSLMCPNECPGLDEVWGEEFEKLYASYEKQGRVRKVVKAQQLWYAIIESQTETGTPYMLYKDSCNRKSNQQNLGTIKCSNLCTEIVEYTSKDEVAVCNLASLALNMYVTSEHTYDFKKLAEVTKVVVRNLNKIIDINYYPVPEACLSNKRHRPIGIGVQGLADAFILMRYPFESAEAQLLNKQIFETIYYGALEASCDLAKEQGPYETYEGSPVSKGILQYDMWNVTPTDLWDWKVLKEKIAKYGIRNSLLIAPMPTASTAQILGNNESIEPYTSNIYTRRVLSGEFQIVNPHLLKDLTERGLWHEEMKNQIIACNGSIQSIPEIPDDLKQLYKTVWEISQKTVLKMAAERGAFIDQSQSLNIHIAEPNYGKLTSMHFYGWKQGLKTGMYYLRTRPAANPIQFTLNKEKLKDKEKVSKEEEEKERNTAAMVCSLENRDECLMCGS
Assay type: biochemical
Summary of the method: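 His-tagged human M1 (isoform 1) and N-terminal 59-aa-truncated M2 (isoform 2), E. coli-expressed, Ni-purified, preincubated 20 min with compound (1% DMSO). Reaction with 10 μM CDP, 2 mM ATP, 0.24 mM NADPH, 6 mM DTT, 4 mM Mg acetate, 100 mM KCl, 50 mM HEPES pH 7.2, 30 min at 37° C. dCDP formed quantified by reverse-phase HPLC after heat stop.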
`COc1cc(Cl)ccc1S(=O)(=O)N[C@H](c1n[nH]c(=O)o1)[C@H](C)c1c(F)ccc(-c2cc(F)cc(F)c2)c1C` [Example 299, 4-chloro-2-methoxy-N-((1S,2R)-1-(5-oxo-4,5-dihydro-1,3,4-oxadiazol-2-yl)-2-(3′,4,5′-trifluoro-2-methyl-[1,1′-biphenyl]-3-yl)propyl)benzenesulfonamide] showed an IC50 of 940 nM. Compound `COc1cc(C#N)ccc1S(=O)(=O)N[C@H](c1n[nH]c(=O)o1)[C@H](C)c1c(F)ccc(C)c1C` [Example 342, 4-cyano-N-((1S,2R)-(6-fluoro-2,3-dimethylphenyl)-1-(5-oxo-4,5-dihydro-1,3,4-oxadiazol-2-yl)propyl)-2-methoxybenzenesulfonamide] has an IC50 of 90 nM. With `Cc1ccc(F)c([C@@H](C)[C@H](NS(=O)(=O)c2ccc(F)c(S(C)(=O)=O)c2)c2n[nH]c(=O)o2)c1C` [Example 169, 4-fluoro-N-((1S,2R)-2-(6-fluoro-2,3-dimethylphenyl)-1-(5-oxo-4,5-dihydro-1,3,4-oxadiazol-2-yl)propyl)-3-(methylsulfonyl)benzenesulfonamide] the IC50 was 190 nM. `CC(=O)OC1(C(F)(F)F)CCOc2c(S(=O)(=O)N[C@H](c3n[nH]c(=O)o3)[C@H](C)c3c(F)ccc(C)c3C)ccc(Cl)c21` (stereo partly drawn) [Example 123, 5-chloro-8-(N-((1S,2R)-2-(6-fluoro-2,3-dimethylphenyl)-1-(5-oxo-4,5-dihydro-1,3,4-oxadiazol-2-yl)propyl)sulfamoyl)-4-(trifluoromethyl)chroman-4-ylacetate] gave an IC50 of 110 nM. With `Cc1ccc(F)c([C@@H](C)[C@H](NS(=O)(=O)c2ccc(Cl)c(-c3nnn[nH]3)c2)c2n[nH]c(=O)o2)c1C` [Example 161, 4-chloro-N-((1S,2R)-2-(6-fluoro-2,3-dimethylphenyl)-1-(5-oxo-4,5-dihydro-1,3,4-oxadiazol-2-yl)propyl)-3-(1H-tetrazol-5-yl)benzenesulfonamide] the IC50 was 280 nM. `COC(=O)c1cc(Br)cnc1S(=O)(=O)N[C@H](c1n[nH]c(=O)o1)[C@H](C)c1c(F)ccc(C)c1C` [Example 119, methyl 5-bromo-2-(N-((1S,2R)-2-(6-fluoro-2,3-dimethylphenyl)-1-(5-oxo-4,5-dihydro-1,3,4-oxadiazol-2-yl)propyl)sulfamoyl)nicotinate] showed an IC50 of 450 nM. `COc1cc(Cl)ccc1S(=O)(=O)N[C@H](c1n[nH]c(=O)o1)C(O)c1c(F)ccc(C)c1C` (mixture of isomers) [Example 290, 4-chloro-N-((1S)-2-(6-fluoro-2,3-dimethylphenyl)-2-hydroxy-1-(5-oxo-4,5-dihydro-1,3,4-oxadiazol-2-yl)ethyl)-2-methoxybenzenesulfonamide] was tested, and the IC50 was 840 nM. Work on `Cc1ccc(F)c([C@@H](C)[C@H](NS(=O)(=O)c2ccc(Cl)cc2C(N)=S)c2n[nH]c(=O)o2)c1C` [Example 287, 5-chloro-2-(N-((1S,2R)-2-(6-fluoro-2,3-dimethylphenyl)-1-(5-oxo-4,5-dihydro-1,3,4-oxadiazol-2-yl)propyl)sulfamoyl)benzothioamide] yielded an IC50 of 50 nM. `CC(=O)OC(C)c1nc(S(=O)(=O)N[C@H](c2n[nH]c(=O)o2)[C@H](C)c2cccc3c2CCC3)ccc1Cl` (stereo partly drawn) [Example 142, 1-(3-chloro-6-(N-((1S,2R)-2-(2,3-dihydro-1H-inden-4-yl)-1-(5-oxo-4,5-dihydro-1,3,4-oxadiazol-2-yl)propyl)sulfamoyl)pyridin-2-yl)ethylacetate] showed an IC50 of 210 nM. With `Cc1ccc(F)c([C@@H](C)[C@H](NS(=O)(=O)c2ccc(Cl)c(C#N)n2)c2n[nH]c(=O)o2)c1C` [Example 105, 5-chloro-6-cyano-N-((1S,2R)-2-(6-fluoro-2,3-dimethylphenyl)-1-(5-oxo-4,5-dihydro-1,3,4-oxadiazol-2-yl)propyl)pyridine-2-sulfonamide] the IC50 was 160 nM. For `Cc1ccc(F)c([C@@H](C)[C@H](NS(=O)(=O)c2ccc(Cl)cc2C(N)=O)c2n[nH]c(=O)o2)c1Cl` [Example 17, 5-chloro-2-(N-((1S)-2-(2-chloro-6-fluoro-3-methylphenyl)-1-(5-oxo-4,5-dihydro-1,3,4-oxadiazol-2-yl)propyl)sulfamoyl)benzamide], the IC50 was 500 nM.
